Measurements taken from PMC5765747 (Advanced materials (Deerfield Beach, Fla.), 2017).
Converted amounts (≈) assume the structure as drawn. Where a SMILES comes first, the peptide text is derived from it. Bridges are numbered along the chain shown (N, C = ends). [ ]: non-standard residue; d: D form. The star is where a group is joined. X1 = CC[C@H](C)CCCCC(=O)*; Dab = NCC[C@H](N)C(=O)O

Test system: P. aeruginosa PA01
Test: Overnight culture growth assay
Format: cell-based

Compound | MIC (P. aeruginosa in LB, 2×10^6 CFU/ml, turbidity at 600 nm) [µg/mL] | inhibitory activity against P. aeruginosa in screening range (peptide concentration range 0 – 5 µM, Figure S1)
CC[C@H](C)CCCCC(=O)N[C@@H](CCN)C(=O)N[C@H](C(=O)N[C@@H](CCN)C(=O)N[C@H]1CCNC(=O)[C@H]([C@@H](C)O)NC(=O)[C@H](CCN)NC(=O)[C@H](CCN)NC(=O)[C@H](CC(C)C)NC(=O)[C@@H](CC(C)C)NC(=O)[C@H](CCN)NC1=O)[C@@H](C)O [colistin] (X1-[Dab]T[Dab][Dab][Dab][dL]L[Dab][Dab]T; lactam 4-C (inferred); N-terminus assumed) | 0.25 (≈ 0.214 µM) | –
D[KLAKLAK]2 [dKK] | – | no activity
